The record followed here is patent US9120779B2, “Inhibitors of HCV NS5A” (PRESIDIO PHARMACEUTICALS, INC., priority 2008, dated 2015).

This assay deals with HCV genotype 1b replicon in Huh 7 cells. Description: HCV replicon assay (luciferase readout, 1b_Huh-Luc/Neo-ET cell line). It is filed as cell-based. To be noted: Hepatitis C virus, Huh-7, 72 h, read-out: Inhibition of HCV genotype 1b, Table 3, 72 h incubation. The procedure: Biological activity of the compounds of the invention was determined using an HCV replicon assay. The 1b_Huh-Luc/Neo-ET cell line persistently expressing a bicistronic genotype 1b replicon in Huh 7 cells was obtained from R^eBLikon GMBH. This cell line was used to test compound inhibition using luciferase enzyme activity readout as a measurement of compound inhibition of replicon levels.
On Day 1 (the day after plating), each compound is added in triplicate to the cells. Plates incubated for 72 h prior to running the luciferase assay. Enzyme activity was measured using a Bright-Glo Kit (cat. number E2620) manufactured by Promega Corporation. The following equation was used to generate a percent control value for each compound. % Control=(Average Compound Value/Average Control)*100
The EC50 value was determined using GraphPad Prism and the following equation: Y=Bottom+(Top−Bottom)/(1+10^((Log IC50−X)*HillSlope))
EC50 values of compounds are repeated several times in the replicon assay.
Example compounds of the disclosed invention are illustrated in Tables 1-9 attached as appendices. The tables show inhibitory activity of many of the example compounds with respect to HCV 1b. […] The tables further provide mass spectrometry results for the synthesized example compounds.
(A replicon is a self-replicating genome or part of one, used to study replication in cells.)
As for `COC(=O)N[C@@H](C(=O)N1CCC[C@H]1c1ncc(C2CCN(c3c(F)cc(-c4cnc([C@@H]5CCCN5C(=O)[C@H](NC(=O)OC(C)(C)C)c5ccccc5)[nH]4)cc3F)CC2)[nH]1)c1ccccc1` [compound 479], the EC50 is < 1 nM. The figure for `COC(=O)N[C@@H](C(=O)N1CCC[C@H]1c1ncc(C2CCN(c3c(F)cc(-c4cnc([C@@H]5CCCN5C(=O)[C@H](NC(=O)C5CC5)c5ccccc5)[nH]4)cc3F)CC2)[nH]1)c1ccccc1` [compound 480] is < 1 nM.

Regarding `COC(=O)N[C@@H](C(=O)N1CCC[C@H]1c1ncc(C2CCN(c3c(F)cc(-c4cnc([C@@H]5CCCN5C(=O)[C@H](NC(=O)N5CCOCC5)c5ccccc5)[nH]4)cc3F)CC2)[nH]1)c1ccccc1` [compound 481], the EC50 is < 1 nM. The same measure for `CC(C)(C)OC(=O)N[C@@H](C(=O)N1CCC[C@H]1c1ncc(-c2cc(F)c(N3CCC(c4cnc([C@@H]5CCCN5C(=O)[C@H](NC(=O)OC(C)(C)C)c5ccccc5)[nH]4)CC3)c(F)c2)[nH]1)c1ccccc1` [compound 482]: < 1 nM. The same measure for `CC(C)(C)OC(=O)N[C@@H](C(=O)N1CCC[C@H]1c1ncc(-c2cc(F)c(N3CCC(c4cnc([C@@H]5CCCCN5C(=O)[C@H](NC(=O)OC(C)(C)C)c5ccccc5)[nH]4)CC3)c(F)c2)[nH]1)c1ccccc1` [compound 483]: < 1 nM; for `O=C(N[C@@H](C(=O)N1CCC[C@H]1c1ncc(-c2cc(F)c(N3CCC(c4cnc([C@@H]5CCCCN5C(=O)[C@H](NC(=O)C5CC5)c5ccccc5)[nH]4)CC3)c(F)c2)[nH]1)c1ccccc1)C1CC1` [compound 484]: < 1 nM. The figure for `O=C(N[C@@H](C(=O)N1CCC[C@H]1c1ncc(-c2cc(F)c(N3CCC(c4cnc([C@@H]5CCCN5C(=O)[C@H](NC(=O)C5CC5)c5ccccc5)[nH]4)CC3)c(F)c2)[nH]1)c1ccccc1)C1CC1` [compound 485] is < 1 nM; for `COC(=O)N[C@@H](C(=O)N1CCC[C@H]1c1ncc(-c2cc(F)c(N3CCC(c4cnc([C@@H]5CCCCN5C(=O)[C@H](NC(=O)C5CC5)c5ccccc5)[nH]4)CC3)c(F)c2)[nH]1)c1ccccc1` [compound 486] it is < 1 nM; for `COC(=O)N[C@@H](C(=O)N1CCC[C@H]1c1ncc(-c2cc(F)c(N3CCC(c4cnc([C@@H]5CCCCN5C(=O)[C@H](NC(=O)OC)c5ccccc5)[nH]4)CC3)c(F)c2)[nH]1)c1ccccc1` [compound 487] it is < 1 nM. On to `COC(=O)N[C@@H](C(=O)N1CCC[C@H]1c1ncc(-c2cc(F)c(N3CCC(c4cnc([C@@H]5CCCN5C(=O)[C@H](NC(=O)N5CCCCC5)c5ccccc5)[nH]4)CC3)c(F)c2)[nH]1)c1ccccc1` [compound 488], for which the EC50 was < 1 nM. The figure for `COC(=O)N[C@@H](C(=O)N1CCC[C@H]1c1ncc(-c2cc(F)c(N3CCC(c4cnc([C@@H]5COCCN5C(=O)[C@H](NC(=O)OC(C)(C)C)c5ccccc5)[nH]4)CC3)c(F)c2)[nH]1)c1ccccc1` [compound 489] is < 1 nM; for `COC(=O)N[C@H](C(=O)N1CCC[C@H]1c1ncc(C2CCN(c3c(F)cc(-c4cnc([C@@H]5CCCN5C(=O)[C@H](NC(=O)OC)c5ccccc5)[nH]4)cc3F)CC2)[nH]1)C(C)C` [compound 490] it is < 1 nM. Take `COC(=O)N[C@@H](C(=O)N1CCCC[C@H]1c1ncc(C2CCN(c3c(F)cc(-c4cnc([C@@H]5CCCN5C(=O)[C@@H](c5ccccc5)N5CCCCC5)[nH]4)cc3F)CC2)[nH]1)c1ccccc1` [compound 491]: the EC50 was < 1 nM. The same measure for `COC(=O)N[C@@H](C(=O)N1CCC[C@H]1c1ncc(-c2cc(F)c(N3CCC(c4cnc([C@@H]5COCCN5C(=O)[C@H](NC(=O)OC)c5ccccc5)[nH]4)CC3)c(F)c2)[nH]1)c1ccccc1` [compound 492]: < 1 nM. The figure for `COC(=O)N[C@@H](C(=O)N1CCCC[C@H]1c1ncc(C2CCN(c3c(F)cc(-c4cnc([C@@H]5CCCN5C(=O)[C@H](NC(=O)C5CC5)c5ccccc5)[nH]4)cc3F)CC2)[nH]1)c1ccccc1` [compound 493] is < 1 nM. The same measure for `COC(=O)N[C@@H](C(=O)N1CCC[C@H]1c1ncc(-c2cc(F)c(N3CCC(c4cnc([C@@H]5COCCN5C(=O)[C@H](NC(=O)C5CC5)c5ccccc5)[nH]4)CC3)c(F)c2)[nH]1)c1ccccc1` [compound 494]: < 1 nM; for `O=C(N[C@@H](C(=O)N1CCC[C@H]1c1ncc(-c2cc(F)c(N3CCC(c4cnc([C@@H]5COCCN5C(=O)[C@@H](c5ccccc5)N5CCCCC5)[nH]4)CC3)c(F)c2)[nH]1)c1ccccc1)C1CC1` [compound 495]: < 1 nM; for `COC(=O)N[C@@H](C(=O)N1CCC[C@H]1c1ncc(-c2cc(F)c(N3CCC(c4cnc([C@@H]5CCCCN5C(=O)[C@@H](c5ccccc5)N5CCCCC5)[nH]4)CC3)c(F)c2)[nH]1)c1ccccc1` [compound 496]: < 1 nM.

With `COC(=O)N[C@@H](C(=O)N1CCOC[C@H]1c1ncc(C2CCN(c3c(F)cc(-c4cnc([C@@H]5CCCN5C(=O)[C@H](NC(=O)OC(C)(C)C)c5ccccc5)[nH]4)cc3F)CC2)[nH]1)c1ccccc1` [compound 497], the EC50 is < 1 nM.

With `COC(=O)N[C@@H](C(=O)N1CCC[C@H]1c1ncc(-c2cc(F)c(N3CCC(c4cnc([C@@H]5CCCN5C(=O)[C@H](NC(=O)OC)C(C)C)[nH]4)CC3)c(F)c2)[nH]1)C(C)C` [compound 498], the EC50 fell in the range of 1 to 9.9 nM. The figure for `COC(=O)N[C@H](C(=O)N1CCC[C@H]1c1ncc(-c2cc(F)c(N3CCC(c4cnc([C@@H]5CCCN5C(=O)[C@@H](NC(=O)OC)C(C)C)[nH]4)CC3)c(F)c2)[nH]1)C(C)C` [compound 499] is < 1 nM; for `COC(=O)N[C@H](C(=O)N1CCCC[C@H]1c1ncc(C2CCN(c3c(F)cc(-c4cnc([C@@H]5CCCN5C(=O)[C@H](NC(=O)OC)c5ccccc5)[nH]4)cc3F)CC2)[nH]1)C(C)C` [compound 500] it is < 1 nM; for `COC(=O)N[C@@H](C(=O)N1CCC[C@H]1c1ncc(-c2cc(F)c(N3CCC(c4cnc([C@@H]5CCCCN5C(=O)[C@H](NC(=O)OC)C(C)C)[nH]4)CC3)c(F)c2)[nH]1)c1ccccc1` [compound 501] it is < 1 nM. Regarding `COC(=O)N[C@@H](C(=O)N1CCOC[C@H]1c1ncc(C2CCN(c3c(F)cc(-c4cnc([C@@H]5CCCN5C(=O)[C@H](NC(=O)C5CC5)c5ccccc5)[nH]4)cc3F)CC2)[nH]1)c1ccccc1` [compound 502], the EC50 was < 1 nM. On to `COC(=O)N[C@H](C(=O)N1CCC[C@H]1c1ncc(-c2cc(F)c(N3CCC(c4cnc([C@@H]5CCCCN5C(=O)[C@@H](NC(=O)OC)C(C)C)[nH]4)CC3)c(F)c2)[nH]1)C(C)C` [compound 503], for which the EC50 is < 1 nM. The same measure for `COC(=O)N[C@@H](C(=O)N1CCC[C@H]1c1ncc(-c2cc(F)c(N3CCC(c4cnc([C@@H]5CCCCN5C(=O)[C@H](NC(=O)OC)C(C)C)[nH]4)CC3)c(F)c2)[nH]1)C(C)C` [compound 504]: > 1000 nM.

Consider `COC(=O)N[C@H](C(=O)N(C)[C@@H](C)c1ncc(C2CCN(c3c(F)cc(-c4cnc([C@@H]5CCCN5C(=O)[C@@H](NC(=O)OC)C(C)C)[nH]4)cc3F)CC2)[nH]1)C(C)C` [compound 505], for which the EC50 was < 1 nM. The figure for `COC(=O)N[C@@H](C(=O)N(C)[C@@H](C)c1ncc(C2CCN(c3c(F)cc(-c4cnc([C@@H]5CCCN5C(=O)[C@H](NC(=O)OC)c5ccccc5)[nH]4)cc3F)CC2)[nH]1)c1ccccc1` [compound 506] is < 1 nM.
